Results on four compounds are retold here after ChEMBL document CHEMBL5727915, “Substituted [5,6]cyclic-4(3H)-pyrimidinones as anticancer agents” (2020).

For this assay, the target named is CDC7/DBF4 (Cell division cycle 7-related protein kinase/Activator of S phase kinase) (Homo sapiens, UniProt O00311). Kind of assay: Biochemical Assay: Biochemical assay was tested in the U-shaped bottom 384 plate (corning, #4514) with a final volume of […] at 27° C. The concentration of CDC7 was optimized by the enzyme titration experiment. CDC7 kinase was diluted in assay buffer (40 mM Tris.HCl pH 7.25, 100 ug/mL BSA, and 20 mM MgCl2) to get 2.4× enzyme solutions. Compounds were dissolved in 10 mM DMSO, and series diluted in DMSO from 0.3 mM to 0.3 nM (5 concentration pts); All dilutions were diluted 30× in assay buffer to get 6× compounds solutions. MCM2 Substrate and ATP were diluted to 2.4× mixed solution. Add 2 ul test compound solution to 384 assay plate, then add 5 ul substrate/ATP mixed solution, at last add 5 ul enzyme solution, incubate at 27° C. for 180 mins. Transfer 5 ul reaction solution to another 384 assay plate, then add 5 ul ADP-Glo™ Reagent (Promega) to each well and incubate at 27° C. for 40 mins; Add 10 ul Kinase Detection Reagent (Promega) to each well and incubate at 27° C. for 30 mins. 10 uM CDC7-3 compound was used as 100% inhibition while 100% DMSO control was used as 0% inhibition. Each test has three replications at least. It is filed as protein-complex assay. A general note: ADP-Glo turns the ADP formed in a reaction into a luminescent signal.
Chain of CDC7/DBF4 (Cell division cycle 7-related protein kinase/Activator of S phase kinase) (Q9UBU7 whole entry): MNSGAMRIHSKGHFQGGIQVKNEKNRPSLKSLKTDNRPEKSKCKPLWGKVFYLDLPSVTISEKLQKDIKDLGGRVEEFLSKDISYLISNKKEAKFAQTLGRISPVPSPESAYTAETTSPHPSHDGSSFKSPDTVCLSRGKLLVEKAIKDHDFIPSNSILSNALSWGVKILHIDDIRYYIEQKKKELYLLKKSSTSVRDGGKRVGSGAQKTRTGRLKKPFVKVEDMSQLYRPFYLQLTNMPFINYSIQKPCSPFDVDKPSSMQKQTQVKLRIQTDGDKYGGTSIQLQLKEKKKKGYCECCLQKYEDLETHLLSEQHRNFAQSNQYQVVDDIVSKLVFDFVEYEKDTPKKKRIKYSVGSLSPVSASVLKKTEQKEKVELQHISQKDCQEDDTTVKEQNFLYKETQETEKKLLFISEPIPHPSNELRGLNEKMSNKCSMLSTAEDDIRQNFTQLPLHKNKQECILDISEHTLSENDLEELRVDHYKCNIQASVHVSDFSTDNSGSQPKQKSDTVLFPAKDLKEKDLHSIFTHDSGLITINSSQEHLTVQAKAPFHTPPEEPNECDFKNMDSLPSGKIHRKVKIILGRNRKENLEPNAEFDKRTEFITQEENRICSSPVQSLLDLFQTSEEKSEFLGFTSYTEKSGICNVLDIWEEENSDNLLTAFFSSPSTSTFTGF
Chain of CDC7/DBF4 (Cell division cycle 7-related protein kinase/Activator of S phase kinase) (O00311 whole entry): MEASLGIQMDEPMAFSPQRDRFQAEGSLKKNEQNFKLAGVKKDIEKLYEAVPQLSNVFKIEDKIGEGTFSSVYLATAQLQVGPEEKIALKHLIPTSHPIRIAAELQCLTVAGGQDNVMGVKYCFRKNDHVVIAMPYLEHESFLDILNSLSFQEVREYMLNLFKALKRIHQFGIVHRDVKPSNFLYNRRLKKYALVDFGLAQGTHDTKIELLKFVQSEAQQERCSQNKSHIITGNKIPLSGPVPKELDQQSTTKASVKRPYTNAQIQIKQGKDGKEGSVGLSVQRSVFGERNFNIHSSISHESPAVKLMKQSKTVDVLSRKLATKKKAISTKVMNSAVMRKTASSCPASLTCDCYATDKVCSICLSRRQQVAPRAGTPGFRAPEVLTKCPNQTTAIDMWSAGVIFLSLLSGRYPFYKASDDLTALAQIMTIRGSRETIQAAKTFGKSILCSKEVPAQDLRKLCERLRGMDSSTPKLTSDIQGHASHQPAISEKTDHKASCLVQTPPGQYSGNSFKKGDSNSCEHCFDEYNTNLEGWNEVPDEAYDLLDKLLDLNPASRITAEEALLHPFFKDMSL
Consider `Cc1cc(-c2cc3nc([C@@H](N)C(C)C)[nH]c(=O)c3s2)ccn1`, for which the IC50 (as a rule, the concentration needed to halve the response being measured) is below 1000 nM.
For the compound `CC(C)[C@H](N)c1nc2cc(-c3ccnc(Cl)c3)sc2c(=O)[nH]1`, the IC50 was below 1000 nM.
For `CN[C@H](c1nc2cc(-c3ccnc(F)c3)sc2c(=O)[nH]1)C(C)C`, the IC50 was below 10000 nM.
In the case of `CC[C@H](N)c1nc2cc(-c3ccnc(F)c3)sc2c(=O)[nH]1` it was below 1000 nM.
